Test results: PMC5000470, “Optimization of extraction parameters of PTP1β (protein tyrosine phosphatase 1β), inhibitory polyphenols, and anthocyanins from Zea mays L. using response surface methodology (RSM)” (BMC Complementary and Alternative Medicine, 2016)
Read-outs that look alike come from different tables or passages of the source.

Assays:
[1] = target: T1, PTP1β (human, recombinant) (Homo sapiens, UniProt P18031); experiment: PTP1β inhibitory activity assay (pNPP substrate); format: biochemical; settings: for inhibition at 10 µg/mL: concentration 10 μg/mL; for inhibition at 50 µg/mL: concentration 50 μg/mL; for inhibition at 25 µg/mL: concentration 25 μg/mL
T1 construct: purchased BIOMOL International LP (Plymouth Meeting, PA)
T1 sequence (P18031 1-435): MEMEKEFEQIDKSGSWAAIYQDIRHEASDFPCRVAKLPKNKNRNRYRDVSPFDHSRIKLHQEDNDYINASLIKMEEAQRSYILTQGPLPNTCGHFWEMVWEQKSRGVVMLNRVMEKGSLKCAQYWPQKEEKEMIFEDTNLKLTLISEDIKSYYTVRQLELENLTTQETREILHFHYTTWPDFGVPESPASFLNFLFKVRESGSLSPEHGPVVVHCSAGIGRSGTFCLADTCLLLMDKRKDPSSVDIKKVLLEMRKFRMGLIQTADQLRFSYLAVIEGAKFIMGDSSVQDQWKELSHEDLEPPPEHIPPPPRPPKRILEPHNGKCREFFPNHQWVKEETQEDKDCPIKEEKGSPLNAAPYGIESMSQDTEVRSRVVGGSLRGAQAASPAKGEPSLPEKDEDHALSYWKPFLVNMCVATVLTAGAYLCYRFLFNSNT
Procedure: A PTP1β (human, recombinant) drug discovery kit was purchased from BIOMOL® International LP (Plymouth meeting, PA). Enzymatic activity was measured using pNPP, as described previously. To each of the 96-wells in a microtiter plate (final volume: 100 μL) was added 2 mM pNPP and PTP1β (0.05-0.1 ng/well) in a buffer containing 50 mM citrate (pH 6.0), 0.1 M sodium chloride, 1 mM EDTA, and 1 mM dithiothreitol, with or without test compounds. Following incubation at 37 °C for 30 min, the reaction was terminated with 10 M sodium hydroxide.
All calculations and analyses were performed using statistical analysis system (SAS, SAS Institude Inc., NC, USA, version 9.1) software and Sigma plot (Systat Software Inc., USA, version 11). Inhibition rates were calculated as percentages (%) with respect to the control value and IC50 value was estimated from the least-squares regression line of the logarithmic concentration plotted against inhibitory activity.

[2] = test system: rat lenses aldose reductase; parameters: method as in PMID 23586057; settings: cited from earlier work
[3] = test system: human recombinant aldose reductase; parameters: method as in PMID 23586057; settings: cited from earlier work
[4] = target: T1, PTP1β (human, recombinant); experiment: Kinetics of PTP1β inhibition (Lineweaver-Burk plots, pNPP substrate); format: biochemical; parameters: dose or concentration left out as unconfirmed
Procedure: […] The initial rate was determined on the basis of the rate of increase in absorbance at 405 nm. The Michaelis-Menten constant (Km) and maximal velocity (Vmax) of PTP1β were determined by Lineweaver-Burk Plot analysis for competitive inhibition, and the intercept on the vertical axis for noncompetitive inhibition.
A kinetic analysis of PTP1β inhibition by compounds 7 and 11 using Lineweaver-Burk plots of 1/velocity and 1/concentration of substrate is shown in Fig. 2. […] However, compound 7 yielded a noncompetitive inhibition pattern against PTP1β. […] These compounds may be potential lead compounds for further development as a functional food source for the prevention of diabetes.

[5] = Table 2, concentration 100 μg/mL, read-out: Inhibition (%)
[6] = Table 2, isolated compounds, mean of 3 duplication analyses, read-out: IC50 (μg/ml) (converted)
[7] = isolated compounds, read-out: IC50

Row | SMILES | inhibition at 100 µg/mL [1, 5] | IC50 [1, 6] | inhibition at 10 µg/mL ([1]; Table 2) | inhibition at 50 µg/mL ([1]; Table 2) | IC50 [1, 7] | other results
1 | Cc1ccc(C(=O)Nc2ccc(S(=O)(=O)O)c3cc(S(=O)(=O)O)cc(S(=O)(=O)O)c23)cc1NC(=O)c1cccc(NC(=O)Nc2cccc(C(=O)Nc3cc(C(=O)Nc4ccc(S(=O)(=O)O)c5cc(S(=O)(=O)O)cc(S(=O)(=O)O)c45)ccc3C)c2)c1 [Suramin, suramin, reference compound] | – | – | – | – | – | inhibition at 3.21 µg/mL ([1]; Table 1, concentration 3.21 μg/mL): 10.7%; inhibition at 6.49 µg/mL ([1]; Table 1, concentration 6.49 μg/mL): 40.6%; inhibition at 12.97 µg/mL ([1]; Table 1, concentration 12.97 μg/mL): 61.9%; inhibition at 1 µg/mL ([1]; Table 2, concentration 1 μg/mL): 10.7%; inhibition at 2.5 µg/mL ([1]; Table 2, concentration 2.5 μg/mL): 46.5%; inhibition at 5 µg/mL ([1]; Table 2, concentration 5 μg/mL): 64.3%
2 | O=C(O)c1ccc(O)c(O)c1 [compound 1, protocatechuic acid] | – | – | – | – | – | inhibition at 100 µg/mL [1]: < 50%
3 | COc1cc(C(=O)O)ccc1O [compound 2, vanillic acid] | < 50% | – | – | – | – | –
4 | O=C(O)c1c(O)cc(O)cc1O [compound 3, 2,4,6-trihydroxy benzoic acid] | < 50% | – | – | – | – | –
5 | O=C(O)/C=C/c1ccc(O)cc1 [compound 4, p-4-hydroxycinnamic acid] | < 50% | – | – | – | – | –
6 | COc1cc(/C=C/C(=O)O)ccc1O [compound 5, ferulic acid] | 96.1% | 185 µM | 28.3% | 64.5% | 185 µM | –
7 | O=c1c(O[C@@H]2O[C@H](CO)[C@@H](O)[C@H](O)[C@H]2O)c(-c2ccc(O)c(O)c2)oc2cc(O)cc(O)c12 [compound 6, hirsutrin] | < 50% | – | – | – | – | inhibitory activity on rat lenses aldose reductase [2]: significant inhibitory activities; inhibitory activity on human recombinant aldose reductase [3]: significant inhibitory activities
8 | COc1cc(-c2oc3cc(O)cc(O)c3c(=O)c2O[C@@H]2O[C@H](CO)[C@@H](O)[C@H](O)[C@H]2O)ccc1O [compound 7, 3′-methoxyhirsutrin] | – | 64 µM | 15% | 85.9% | 64 µM | inhibition at 25 µg/mL ([1]; Table 2): 36.8%; type of inhibition of PTP1β [4]: noncompetitive; inhibitory activity on rat lenses aldose reductase [2]: significant inhibitory activities; inhibitory activity on human recombinant aldose reductase [3]: significant inhibitory activities
9 | OC[C@H]1O[C@@H](Oc2cc3c(O)cc(O)cc3[o+]c2-c2ccc(O)c(O)c2)[C@H](O)[C@@H](O)[C@@H]1O [compound 8, cyanidin-3-glucoside] | < 50% | – | – | – | – | –
10 | OC[C@H]1O[C@@H](Oc2cc3c(O)cc(O)cc3[o+]c2-c2ccc(O)cc2)[C@H](O)[C@@H](O)[C@@H]1O [compound 9, pelargonidin-3-glucoside] | 55% | 211 µM | 1.09% | 13.3% | 211 µM | –
11 | COc1cc(-c2[o+]c3cc(O)cc(O)c3cc2O[C@@H]2O[C@H](CO)[C@@H](O)[C@H](O)[C@H]2O)ccc1O [compound 10, peonidin-3-glucoside] | < 50% | – | – | – | – | –
12 | O=C(O)CC(=O)OC[C@H]1O[C@@H](Oc2cc3c(O)cc(O)cc3[o+]c2-c2ccc(O)c(O)c2)[C@H](O)[C@@H](O)[C@@H]1O [compound 11, cyanidin-3-(6”-malonylglucoside)] | – | 54.1 µM | 18.5% | 91.7% | 54.1 µM | inhibition at 25 µg/mL ([1]; Table 2): 36.2%; type of inhibition of PTP1β [4]: mixed; inhibitory activity on rat lenses aldose reductase [2]: significant inhibitory activities; inhibitory activity on human recombinant aldose reductase [3]: significant inhibitory activities
